# Results taken from patent US7884186B2, “Isotopically labeled trapping agent and method for identifying reactive metabolites” (Janssen Pharmaceutica NV, priority 2006, dated 2011).
# System: human liver microsomal preparations (cytochrome P450 enzyme preparations)
# Assay: Reactive metabolite trapping with compound of formula (I) / (I-IS) in human liver microsomal incubation, neutral loss (129 Da) LC-MS/MS
# Format: in vitro ADME
# Conditions: 10 μM test compound, 1 mg/ml microsomal proteins, 1 mM 1:1 mixture of formula (I) and (I-IS), NADPH generating system, 60 min, 37° C.; neutral loss of 129 Da, doublet mass difference 8 Da
# Procedure: All microsomal incubations described herein were performed at 37° C. in a water bath. The test compound was mixed with human liver microsomal preparations (cytochrome P450 enzyme preparations) in 50 mM potassium phosphate buffer (pH 7.4) supplemented with the non-isotopically labeled compound of formula (I) and the isotopically labeled compound of formula (I-S) that were pre-mixed at an equal molar ratio of 1:1. The resulting mixtures were pre-warmed at 37° C. for 5 min. To the reaction mixtures was then added the co-factor—NADPH generating system—(to initiate the reaction) to yield a final volume of 1000 μl.
# The resulting reaction mixtures contained 10 μM test compounds, 1 mg/ml microsomal proteins, 1 mM mixture of non-isotopically labeled compound of formula (I) and isotopically labeled compound of formula (I-IS), 1.3 mM NADP^+, 3.3 mM glucose-6-phosphate, 0.4 U/ml glucose-6-phosphate dehydrogenase, 3.3 mM magnesium chloride.
# After a 60 min incubation, the reactions were terminated by the addition of 150 μl of trichloroacetic acid (10%). The resulting mixtures were centrifuged at 10,000 g for 15 min at 4° C. to pellet the precipitated protein, and the supernatants were subjected to solid-phase extractions. Alternatively, the reaction mixtures were subjected to liquid-liquid extractions to recover the metabolites from supernatants.
# MS analyses were performed on a Micromass (Manchester, UK) Quattro Micro triple quadrupole mass spectrometer. The ESI ion source was operated in the positive ion mode, and experimental parameters were set as follows: capillary voltage 3.2 kV, source temperature 120° C., desolvation temperature 300° C., sample cone voltage 26 V. Mass spectra collected in the neutral loss scanning mode were obtained by scanning over the range m/z 400-800 in 2.0 s.
# For complete profiling of reactive metabolites, samples were first subjected to chromatographic separations with an Agilent 1100 HPLC system with an auto-sampler (Agilent Technologies, Palo Alto, Calif.), and eluents were introduced to the Quattro Micro triple quadrupole mass spectrometer operated in the neutral loss scanning mode. An Agilent Zorbax SB C18 column (2.1×50 mm) was used for the chromatographic separation. […] At 7 min, the column was flushed with 95% acetonitrile for 2 min before re-equilibration at initial conditions. LC-MS/MS analyses were carried out on 10-μl aliquots of cleaned samples. Data were processed using the Masslynx version 4.0 software from Micromass. After a positive peak was detected, MS/MS spectra were subsequently obtained to further confirm the structure of the adduct(s). To acquire CID (Collision Induced Dissociation) spectra, the mass spectrometer was operated in the multiple reaction monitoring (MRM) mode.
row,SMILES,components (reactive metabolite adducts) showing the characteristic isotopic doublet in the neutral loss scan
1,O=C(O)Cc1ccccc1Nc1c(Cl)cccc1Cl [Diclofenac],two of the components showed the expected isotope doublet
2,Cc1coc2c1CCC(C)C2 (stereo not drawn) [Menthofuran],One component
3,COc1ccc2[nH]c([S+]([O-])Cc3ncc(C)c(OC)c3C)nc2c1 (stereo not drawn) [Omeprazole],Only one component
4,c1ccoc1 [Furan],displayed the characteristic isotopic doublet
5,c1coc(-c2cccs2)c1 [2-(2-Thienyl)-furan],showed the characteristic isotopic doublet
6,Cc1ccco1 [2-Methylfuran],Two isomeric adducts
